Columns and labels:
Type in all cases: in vivo
[1] = system: redroot pigweed (Amaranthus retroflexus, AMARE); experiment: Pre-emerge test, greenhouse herbicide activity screening; conditions: phytotoxicity rating 0-100, 14 days after application
In short: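 Compounds in acetone were track-sprayed at 15-1000 g ai/ha (187 l/ha) on sandy loam pots: pre-emerge one day after seeding, post-emerge at 2-3 leaf stage with 0.25% v/v non-ionic surfactant. Phytotoxicity was rated 14 days later on a 0 (no damage) to 100 (complete death) scale.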

[2] = system: upland rice (Oryza sp., var. Tebonnet, RICE); experiment: Post-emerge test, crop safety; conditions: post-emerge, 14 days after application, rating scale 0-100
In short: (§1)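 Rating: 0–100 visual injury, 14 DAA. Application: acetone, 187 l/ha, 15–1000 g ai/ha, flat-fan track sprayer with nozzle 40–45 cm above soil or canopy. Post-emerge runs used 0.25% v/v surfactant on 2–3 leaf plants.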

[3] = system: field corn (Zea mays L., var. Dekalb 535, CORN); experiment: Post-emerge test, crop safety; conditions: post-emerge, 14 days after application, rating scale 0-100
In short: as §1

[4] = system: velvetleaf (Abutilon theophrasti, ABUTH); experiment: Pre-emerge test, greenhouse herbicide activity screening; conditions: phytotoxicity rating 0-100, 14 days after application
In short: (§2)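 Compounds in acetone were track-sprayed at 15–1000 g ai/ha: pre-emergence onto soil sown the previous day, then top-watered to incorporate and later bottom-watered; post-emergence onto 2–3 leaf plants with 0.25% v/v surfactant, bottom-watered only. Ratings on a 0–100 phytotoxicity scale were taken at day 14.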

[5] = system: lambsquarters (Chenopodium album, CHEAL); experiment: as above; conditions: phytotoxicity rating 0-100, 14 days after application
In short: as §2

[6] = system: green foxtail (Setaria viridis, SETVI); experiment: as above; conditions: phytotoxicity rating 0-100, 14 days after application
In short: as §2

[7] = system: sicklepod (Cassia obtusifolia, CASOB); experiment: as above; conditions: phytotoxicity rating 0-100, 14 days after application
In short: as §2

[8] = system: johnsongrass (Sorghum halepense, SORHA); experiment: as above; conditions: phytotoxicity rating 0-100, 14 days after application
In short: as §2

[9] = system: large crabgrass (Digitaria sanguinalis, DIGSA); experiment: as above; conditions: phytotoxicity rating 0-100, 14 days after application
In short: as §2

[10] = system: ivyleaf morningglory (Ipomoea hederacea, IPOHE); experiment: as above; conditions: phytotoxicity rating 0-100, 14 days after application
In short: as §2

[11] = system: barnyardgrass (Echinochloa crus-galli, ECHCG); experiment: as above; conditions: phytotoxicity rating 0-100, 14 days after application
In short: as §2

[12] = system: common ragweed (Ambrosia artemisizfolia L., AMBEL); experiment: as above; conditions: phytotoxicity rating 0-100, 14 days after application
In short: as §2

[13] = system: upland rice (Oryza sp., var. Tebonnet, RICE); experiment: Pre-emerge test, crop safety; conditions: crop damage rating 0-100, 14 days after application
In short: (§3)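 Herbicidal damage is scored 0 (none) to 100 (complete plant death) two weeks after a simulated field spray. Rates span 15–1000 g ai/ha, delivered in acetone at 187 l/ha. For post-emergence treatments, plants have 2–3 leaves and the spray carries 0.25% v/v non-ionic surfactant.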

[14] = system: field corn (Zea mays L., var. Dekalb 535, CORN); experiment: Pre-emerge test, crop safety; conditions: crop damage rating 0-100, 14 days after application
In short: as §3

[15] = system: velvetleaf (Abutilon theophrasti, ABUTH); experiment: Post-emerge test, greenhouse herbicide activity screening; conditions: post-emerge, 14 days after application, rating scale 0-100
In short: (§4)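 Sandy loam pots; pre-emerge: sown 1 d pre-spray, surface-watered after, then bottom-watered. Post-emerge: sown 8–21 d before, 2–3 leaf stage, + 0.25% v/v NIS, bottom-watered. Acetone, 187 l/ha track spray, 15–1000 g ai/ha. 0–100 injury score, day 14.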

[16] = system: redroot pigweed (Amaranthus retroflexus, AMARE); experiment: as above; conditions: post-emerge, 14 days after application
In short: as §4

[17] = system: lambsquarters (Chenopodium album, CHEAL); experiment: as above; conditions: post-emerge, 14 days after application, rating scale 0-100
In short: as §4

[18] = system: green foxtail (Setaria viridis, SETVI); experiment: as above; conditions: post-emerge, 14 days after application, rating scale 0-100
In short: as §4

[19] = system: sicklepod (Cassia obtusifolia, CASOB); experiment: as above; conditions: post-emerge, 14 days after application, rating scale 0-100
In short: as §4

[20] = system: johnsongrass (Sorghum halepense, SORHA); experiment: as above; conditions: post-emerge, 14 days after application, rating scale 0-100
In short: as §4

[21] = system: large crabgrass (Digitaria sanguinalis, DIGSA); experiment: as above; conditions: post-emerge, 14 days after application, rating scale 0-100
In short: as §4

[22] = system: ivyleaf morningglory (Ipomoea hederacea, IPOHE); experiment: as above; conditions: post-emerge, 14 days after application, rating scale 0-100
In short: as §4

[23] = system: barnyardgrass (Echinochloa crus-galli, ECHCG); experiment: as above; conditions: post-emerge, 14 days after application, rating scale 0-100
In short: as §4

[24] = system: common ragweed (Ambrosia artemisizfolia L., AMBEL); experiment: as above; conditions: post-emerge, 14 days after application, rating scale 0-100
In short: as §4

[25] = 63 g ai/ha, rating scale 0-100 (0 no damage, 100 complete death)
[26] = 250 g ai/ha, rating scale 0-100

2-(4-chloro-3-ethoxy-6-fluoro-2-naphthoylamidophenyl)-1-methyl-6-trifluoromethyl-2,4(1H, 3H)-pyrimidinedione [Compound 2-196]
Pre-emerge Herbicidal Activity AMARE ([1]; 63 g ai/ha): 100
Pre-emerge Herbicidal Activity AMARE ([1]; 250 g ai/ha): 100
phytotoxicity rating RICE (crop damage) ([2]; 63 g ai/ha): 30
phytotoxicity rating CORN (crop damage) ([3]; 63 g ai/ha): 10
phytotoxicity rating CORN (crop damage) ([3]; 250 g ai/ha): 15
Pre-emerge Herbicidal Activity ABUTH ([4]; 63 g ai/ha): 100
Pre-emerge Herbicidal Activity ABUTH ([4]; 250 g ai/ha): 100
Pre-emerge Herbicidal Activity CHEAL ([5]; 63 g ai/ha): 100
Pre-emerge Herbicidal Activity CHEAL ([5]; 250 g ai/ha): 100
Pre-emerge Herbicidal Activity SETVI ([6]; 63 g ai/ha): 90
Pre-emerge Herbicidal Activity SETVI ([6]; 250 g ai/ha): 100
Pre-emerge Herbicidal Activity CASOB ([7]; 63 g ai/ha): 0
Pre-emerge Herbicidal Activity CASOB ([7]; 250 g ai/ha): 60
Pre-emerge Herbicidal Activity SORHA ([8]; 63 g ai/ha): 10
Pre-emerge Herbicidal Activity SORHA ([8]; 250 g ai/ha): 20
Pre-emerge Herbicidal Activity DIGSA ([9]; 63 g ai/ha): 90
Pre-emerge Herbicidal Activity DIGSA ([9]; 250 g ai/ha): 100
Pre-emerge Herbicidal Activity IPOHE ([10]; 63 g ai/ha): 20
Pre-emerge Herbicidal Activity IPOHE ([10]; 250 g ai/ha): 70
Pre-emerge Herbicidal Activity ECHCG ([11]; 63 g ai/ha): 40
Pre-emerge Herbicidal Activity ECHCG ([11]; 250 g ai/ha): 85
Pre-emerge Herbicidal Activity AMBEL ([12]; 63 g ai/ha): 30
Pre-emerge Herbicidal Activity AMBEL ([12]; 250 g ai/ha): 90
Pre-emerge Herbicidal Activity RICE ([13]; 63 g ai/ha): 20
Pre-emerge Herbicidal Activity RICE ([13]; 250 g ai/ha): 50
Pre-emerge Herbicidal Activity CORN ([14]; 63 g ai/ha): 0
Pre-emerge Herbicidal Activity CORN ([14]; 250 g ai/ha): 0
phytotoxicity rating ABUTH ([15]; 63 g ai/ha): 100
phytotoxicity rating ABUTH ([15]; 250 g ai/ha): 100
phytotoxicity rating AMARE [16, 25]: 100
phytotoxicity rating AMARE [16, 26]: 100
phytotoxicity rating CHEAL ([17]; 63 g ai/ha): 100
phytotoxicity rating CHEAL ([17]; 250 g ai/ha): 100
phytotoxicity rating SETVI ([18]; 63 g ai/ha): 30
phytotoxicity rating SETVI ([18]; 250 g ai/ha): 20
phytotoxicity rating CASOB ([19]; 63 g ai/ha): 100
phytotoxicity rating CASOB ([19]; 250 g ai/ha): 100
phytotoxicity rating SORHA ([20]; 63 g ai/ha): 10
phytotoxicity rating SORHA ([20]; 250 g ai/ha): 10
phytotoxicity rating DIGSA ([21]; 63 g ai/ha): 10
phytotoxicity rating DIGSA ([21]; 250 g ai/ha): 20
phytotoxicity rating IPOHE ([22]; 63 g ai/ha): 90
phytotoxicity rating IPOHE ([22]; 250 g ai/ha): 100
phytotoxicity rating ECHCG ([23]; 63 g ai/ha): 10
phytotoxicity rating ECHCG ([23]; 250 g ai/ha): 10
phytotoxicity rating AMBEL ([24]; 63 g ai/ha): 100
phytotoxicity rating AMBEL ([24]; 250 g ai/ha): 90

Cn1c(C(F)(F)F)cc(=O)n(-c2c(F)cc(Cl)c(O)c2NC(=O)c2ccc3ccccc3c2)c1=O [Compound 2-194, 2-(2,4-chloro-6-fluoro-3-hydroxy-2-naphthoylamidophenyl)-1-methyl-6-trifluoromethyl-2,4(1H, 3H)-pyrimidinedione]
Pre-emerge Herbicidal Activity AMARE ([1]; 63 g ai/ha): 75
Pre-emerge Herbicidal Activity AMARE ([1]; 250 g ai/ha): 100
phytotoxicity rating RICE (crop damage) ([2]; 63 g ai/ha): 30
phytotoxicity rating RICE (crop damage) ([2]; 250 g ai/ha): 40
phytotoxicity rating CORN (crop damage) ([3]; 63 g ai/ha): 5
phytotoxicity rating CORN (crop damage) ([3]; 250 g ai/ha): 5
Pre-emerge Herbicidal Activity ABUTH ([4]; 63 g ai/ha): 90
Pre-emerge Herbicidal Activity ABUTH ([4]; 250 g ai/ha): 100
Pre-emerge Herbicidal Activity CHEAL ([5]; 63 g ai/ha): 40
Pre-emerge Herbicidal Activity CHEAL ([5]; 250 g ai/ha): 85
Pre-emerge Herbicidal Activity SETVI ([6]; 63 g ai/ha): 0
Pre-emerge Herbicidal Activity SETVI ([6]; 250 g ai/ha): 20
Pre-emerge Herbicidal Activity CASOB ([7]; 63 g ai/ha): 0
Pre-emerge Herbicidal Activity CASOB ([7]; 250 g ai/ha): 10
Pre-emerge Herbicidal Activity SORHA ([8]; 63 g ai/ha): 0
Pre-emerge Herbicidal Activity SORHA ([8]; 250 g ai/ha): 0
Pre-emerge Herbicidal Activity DIGSA ([9]; 63 g ai/ha): 0
Pre-emerge Herbicidal Activity DIGSA ([9]; 250 g ai/ha): 10
Pre-emerge Herbicidal Activity IPOHE ([10]; 63 g ai/ha): 0
Pre-emerge Herbicidal Activity IPOHE ([10]; 250 g ai/ha): 20
Pre-emerge Herbicidal Activity ECHCG ([11]; 63 g ai/ha): 0
Pre-emerge Herbicidal Activity ECHCG ([11]; 250 g ai/ha): 0
Pre-emerge Herbicidal Activity AMBEL ([12]; 63 g ai/ha): 0
Pre-emerge Herbicidal Activity AMBEL ([12]; 250 g ai/ha): 0
Pre-emerge Herbicidal Activity RICE ([13]; 63 g ai/ha): 0
Pre-emerge Herbicidal Activity RICE ([13]; 250 g ai/ha): 10
Pre-emerge Herbicidal Activity CORN ([14]; 63 g ai/ha): 0
Pre-emerge Herbicidal Activity CORN ([14]; 250 g ai/ha): 0
phytotoxicity rating ABUTH ([15]; 63 g ai/ha): 95
phytotoxicity rating ABUTH ([15]; 250 g ai/ha): 100
phytotoxicity rating AMARE [16, 25]: 99
phytotoxicity rating AMARE [16, 26]: 99
phytotoxicity rating CHEAL ([17]; 63 g ai/ha): 90
phytotoxicity rating CHEAL ([17]; 250 g ai/ha): 100
phytotoxicity rating SETVI ([18]; 63 g ai/ha): 20
phytotoxicity rating SETVI ([18]; 250 g ai/ha): 20
phytotoxicity rating CASOB ([19]; 63 g ai/ha): 50
phytotoxicity rating CASOB ([19]; 250 g ai/ha): 70
phytotoxicity rating SORHA ([20]; 63 g ai/ha): 0
phytotoxicity rating SORHA ([20]; 250 g ai/ha): 10
phytotoxicity rating DIGSA ([21]; 63 g ai/ha): 0
phytotoxicity rating DIGSA ([21]; 250 g ai/ha): 20
phytotoxicity rating IPOHE ([22]; 63 g ai/ha): 95
phytotoxicity rating IPOHE ([22]; 250 g ai/ha): 99
phytotoxicity rating ECHCG ([23]; 63 g ai/ha): 0
phytotoxicity rating ECHCG ([23]; 250 g ai/ha): 10
phytotoxicity rating AMBEL ([24]; 63 g ai/ha): 95
phytotoxicity rating AMBEL ([24]; 250 g ai/ha): 90
